Legend:
[1] = biological target: T1, interaction between PGRMC1 and EGFR (Homo sapiens, UniProt O00264); assay: Co-immunoprecipitation of PGRMC1 and EGFR in HCT116 cells; assay type: cell-based; settings: HCT116, FLAG-PGRMC1 co-IP, 12 h treatment
T1 construct: mammalian FLAG-tagged expression vector pCMV-FLAG-PGRMC1 (full-length); expressed in transfected cells; host or cells: HCT116 or HuH7
Method: (§1) An expression vector of pCMV-3xFLAG-PGRMC1 or an empty vector was transfected into HCT116 cells or HuH7 cells using the transfection reagent Lipofectamine 2000 (Invitrogen). The cells were incubated overnight with either GL or GlucoGL. Cells were then lysed with NP40 lysis buffer (20 mM Tris-HCl [pH 7.5], 150 mM NaCl, and 1% NP40). The lysates were incubated with 10 μL of equilibrated anti-FLAG (M2) agarose for 60 min at room temperature. Bound proteins were washed three times and subjected to SDS-PAGE and visualized through western blotting using antibodies against FLAG, EGFR, and LDLR. For analysis of the endogenous PGRMC1-binding with FLAG-PGRMC1, HCT116 cells (1 × 10^7 cells) were treated with vehicle or 250 μM SA and/or 10 μM hemin for 48 h, and the cell lysates were co-immunoprecipitated with anti-FLAG (M2) agarose. Bound proteins (endogenous PGRMC1 and FLAG-tagged PGRMC1) were visualized through western blotting using antibody against PGRMC1.

[2] = system: EGF signaling; assay: EGF signaling (western blot) in HuH7 cells; assay type: cell-based, human; settings: HuH7, EGF for 5 min
Method: For analysis of EGFR signaling, cells were incubated overnight with GL or GlucoGL, and then EGF (100 ng/mL) was added for 5 min. Cells were lysed with RIPA buffer, and the lysates were subjected to SDS-PAGE and visualized through western blotting using antibodies against PGRMC1, EGFR, phospho-Y1068 EGFR, AKT, phospho-S473AKT, ERK, and phospho-T185 Y187 ERK.

[3] = system: HuH7 cells; assay: Chemosensitivity MTT assay in HuH7 cells; assay type: cell-based, human
Method: The HCT116 cells, a human colon cancer cell line, and HuH7 cells, a human hepatoma cell line, were maintained in Dulbecco’s modified Eagle’s medium (DMEM) containing 10% fetal bovine serum (FBS) and 1% penicillin-streptomycin at 37 °C in a 5% CO2 humidified incubator. The PGRMC1 knockdown (KD) cell line was established in a previous study using lentivirus vectors.
To analyze the chemosensitivity of HCT116 or HuH7 cells, the cells were incubated with erlotinib (20 µM) or CDDP (10 µM) and either GL or GL derivatives for 24 h on a 96-well plate. Cell viability was determined using an MTT assay kit (Millipore, Burlington, MA, USA) according to the manufacturer’s instructions.

[4] = biological target: T1, interaction between PGRMC1 and EGFR; assay: Co-immunoprecipitation of PGRMC1 and EGFR in HuH7 cells; assay type: cell-based; settings: HuH7, FLAG-PGRMC1 co-IP, 12 h treatment
Method: as §1

[5] = biological target: T2, HMGB1 (Homo sapiens, UniProt P09429); assay: ITC binding to HMGB1; settings: HMGB1 80 µM, compound 3 mM
T2 construct: human HMGB1 full-length cDNA was cloned from cDNA library of HCT116 cells; GST (N, cleaved yes); made in house; host or cells: E. coli BL21 (DE3)
T2 sequence (P09429 whole entry): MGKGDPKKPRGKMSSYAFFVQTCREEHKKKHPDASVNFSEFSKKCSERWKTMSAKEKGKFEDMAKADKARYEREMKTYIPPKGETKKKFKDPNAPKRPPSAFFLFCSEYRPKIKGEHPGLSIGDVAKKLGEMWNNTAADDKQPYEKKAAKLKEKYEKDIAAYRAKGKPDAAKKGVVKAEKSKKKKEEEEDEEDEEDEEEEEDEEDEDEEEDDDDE
Source text: Bacterial expression vectors pGEX-PGRMC1 (human PGRMC1 intracellular domain residues 43-195) and mammalian FLAG-tagged expression vector pCMV-FLAG-PGRMC1 (full-length) were constructed as described previously. Expression vectors for PGRMC1 point mutants were generated by site-directed mutagenesis with PCR. For construction of HMGB1 expression vector, human HMGB1 full-length cDNA was cloned from cDNA library of HCT116 cells using the primers (Forward: 5′-[…]-3′, Reverse: 5′-[…]-[…]-3′), digested with Bam HI and Sal I, and then ligated into pGEX6P1.
Expression vectors (pGEX-PGRMC1 (residues 43-195) or pGEX-HMGB1) were transformed into BL21 (DE3) competent E. coli cells, and the cells incubated in LB medium with ampicillin at 37 °C until the OD600 reached 0.8. Protein expression was induced by adding 1 mM isopropyl-β-thiogalactopyranoside (IPTG) and incubating at 37 °C for 4 h. […]
ITC experiments were performed at 298 K with ITC-Buffer (50 mM phosphate [pH 7.0]) using a MicroCal iTC200 (Malvern Panalytical, Malvern, UK). […] Binding isotherms were analyzed using SEDPHAT [35]. The binding of AG205 to apo- or heme-PGRMC1 (100 μM) was analyzed using a concentration of 3 mM containing 1% DMSO. […]

[6] = biological target: T3, heme-dimerized PGRMC1 (Homo sapiens, UniProt O00264); assay: ITC binding to heme-dimerized PGRMC1; settings: for Kd / TΔS / ΔG / ΔH: ITC; for Kd: 298 K, 50 mM phosphate pH 7.0, heme-dimerized PGRMC1 (WT); for TΔS / ΔG / ΔH: heme-dimerized PGRMC1 (WT)
T3 construct: human PGRMC1 intracellular domain residues 43-195; GST (N, cleaved yes); made in house; host or cells: E. coli BL21 (DE3)
T3 sequence (O00264 43-195): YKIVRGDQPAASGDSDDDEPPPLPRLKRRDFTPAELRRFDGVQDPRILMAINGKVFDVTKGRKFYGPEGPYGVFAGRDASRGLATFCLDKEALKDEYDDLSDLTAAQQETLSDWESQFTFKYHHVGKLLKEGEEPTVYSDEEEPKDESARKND
Method: Protein expression was induced by adding 1 mM isopropyl-β-thiogalactopyranoside (IPTG) and incubating at 37 °C for 4 h. After harvesting cells, the cell pellets were then resuspended in buffer containing 20 mM Tris-HCl (pH 7.5), 100 mM NaCl, and 0.1% Tween 20, sonicated twice at 4 °C for 5 min, and centrifuged at 20,000× g for 30 min. The supernatant was incubated with glutathione Sepharose 4B (GE Healthcare, Chicago, IL, USA) for 1 h at 4 °C. The resin was then washed five times with the same buffer, and the GST tag cleaved by adding Precision Protease (GE Healthcare) and incubating at 4 °C for 16 h. Apo-PGRMC1 or HMGB1 proteins was purified using size-exclusion chromatography in a Superdex 200 column (GE Healthcare). Heme-bound PGRMC1 was prepared by treating with 100 μM hemin and then purified using size-exclusion chromatography.
GL derivatives were dissolved in 3 mM ITC-Buffer and titrated into 100 μM apo-PGRMC1, heme-bound-PGRMC1, or HMGB1 protein. Titration was performed by injecting 2 µL of the syringe solution at intervals of 120 s. Binding isotherms were analyzed using SEDPHAT [35]. The binding of AG205 to apo- or heme-PGRMC1 (100 μM) was analyzed using a concentration of 3 mM containing 1% DMSO.

T1 sequence (O00264 whole entry): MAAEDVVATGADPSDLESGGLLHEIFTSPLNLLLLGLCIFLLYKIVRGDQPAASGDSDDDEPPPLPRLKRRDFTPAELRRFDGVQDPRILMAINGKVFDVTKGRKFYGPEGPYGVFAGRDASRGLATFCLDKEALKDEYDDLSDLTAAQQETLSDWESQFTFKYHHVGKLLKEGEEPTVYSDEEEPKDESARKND

Interaction between PGRMC1 and EGFR [1]	Interaction between PGRMC1 and EGFR [4]	Kd [5] [µM]	Kd [6] [µM]	TΔS [6] [K·kcal/mol]	ΔG [6] [kcal/mol]	ΔH [6] [kcal/mol]	Binding to heme-dimerized PGRMC1 relative to binding to HMGB1 ([6]; ratio of KD HMGB1 / PGRMC1) [times]	KD for HMGB1 [5]	SMILES	EGF signaling [2]	Cell viability with erlotinib or CDDP [3]
inhibited	inhibited the interaction	223	52.7	4.61	-5.84	-1.23	4.23		CC1(C)[C@@H](O[C@H]2O[C@H](C(=O)O)[C@@H](O)[C@H](O)[C@H]2O[C@@H]2O[C@H](C(=O)O)[C@@H](O)[C@H](O)[C@H]2O)CC[C@]2(C)[C@H]3C(=O)C=C4[C@@H]5C[C@@](C)(C(=O)O)CC[C@]5(C)CC[C@@]4(C)[C@]3(C)CC[C@@H]12 [Glycyrrhizin (GL), Glycyrrhizin]	suppressed the EGF signaling	significantly suppressed cell viability
inhibited the interaction more potently	inhibited the interaction		1.38	7.44	-8.00	-0.56		weak binding	CC1(C(=O)O)CCC2(C)CCC3(C)C(=CC(=O)C4C5(C)CCC(OC6OC(C(=O)O)C(O)C(O)C6OC6OC(CO)C(O)C(O)C6O)C(C)(C)C5CCC43C)C2C1 (stereo not shown) [Glucoglycyrrhizin (GlucoGL), Glucoglycyrrhizin]	suppressed the EGF signaling	significantly suppressed cell viability

Reference: publication PMC8269059, “Glycyrrhizin Derivatives Suppress Cancer Chemoresistance by Inhibiting Progesterone Receptor Membrane Component 1” (Cancers, 2021)
